Data on 1 compound can be found in article PMC7500870 (Biochemistry, 2020).

Molecules are shown by their SMILES.

The assay deals with Cj1427 (Campylobacter jejuni, UniProt Q0P8I7). Briefly: stopped-flow NADH fluorescence, single turnover, global fit by simulation. The format is binding.
Sequence of Cj1427 (Q0P8I7 whole entry): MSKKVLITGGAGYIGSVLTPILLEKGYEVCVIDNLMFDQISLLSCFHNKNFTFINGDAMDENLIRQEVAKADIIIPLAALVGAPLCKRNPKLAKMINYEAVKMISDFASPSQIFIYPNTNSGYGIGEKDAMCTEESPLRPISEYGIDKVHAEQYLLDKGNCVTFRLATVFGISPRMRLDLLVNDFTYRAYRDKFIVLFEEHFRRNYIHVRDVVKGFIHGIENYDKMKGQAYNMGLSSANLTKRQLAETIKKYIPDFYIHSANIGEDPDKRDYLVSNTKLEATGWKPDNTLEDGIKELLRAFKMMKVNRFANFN

Usually Kd stands for a measure of binding affinity in units of concentration. As for `O=C(O)CCC(=O)C(=O)O` [α-ketoglutarate], the Kd was 165 µM.
